{"source": "patent US20120177690A1", "about": "“USE OF RAPAMYCIN DERIVATIVES IN VASCULOPATHIES AND XENOTRANSPLANTATION” (Novartis AG, priority 1996, published 2012)", "key": {"kidney allograft": {"test_system": "kidney allograft", "experiment": "Chronic allograft rejection, rat kidney allograft model (DA to Lewis)", "type": "in vivo", "experimental": "The kidney of a male DA (RTI^a) rat is orthotopically transplanted into a male Lewis (RTI^1) recipient. In total 24 animals are transplanted. All animals are treated with cyclosporine A at 7.5 mg/kg/day per as for 14 days starting on the day of transplantation, to prevent acute cellular rejection. Contralateral nephrectomy is not performed. Each experimental group treated with a distinct dose of a compound of formula I or placebo comprises six animals.\nStarting at day 53-64 after transplantation, the recipient animals are treated per os for another 69-72 days with a compound of formula I or receive placebo. At 14 days after transplantation animals are subjected to graft assessment by magnetic resonance imaging (MRI) with perfusion measurement of the kidneys (with comparison of the grafted kidney and the own contralateral kidney). This is repeated at days 53-64 after transplantation and at the end of the experiment. The animals are then autopsied. Rejection parameters such as MRI score, relative perfusion rate of the grafted kidney and histologic score of the kidney allograft for cellular rejection and vessel changes are determined and statistically analyzed. Administration of a compound of formula I, e.g. Compound A, at a dose of 0.5 to 2.5 mg/kg in this rat kidney allograft model yields a reduction in all above mentioned rejection parameters."}, "aorta allograft": {"test_system": "aorta allograft", "experiment": "Aorta transplantation in the rat (DA to Lewis)", "type": "in vivo", "conditions": "per os in microemulsion, 2.5 mg/kg/day for 7 weeks and 0.63-5.0 mg/kg/day for 11 weeks", "experimental": "These include infiltration into the adventitia of mononuclear cells (lymphocytes, macrophages, some plasma cells), and thickening of the intima.\nDonor aorta between the branch of the renal artery and the start of the caudal mesenteric aorta, about 1 cm in length, is harvested from a male DA (RTI^a) rat and transplanted orthotopically in a male Lewis (RTI^1) rat. Weekly after transplantation, the body weight is recorded. At autopsy, the graft with part of the aorta of the recipient just above and below the transplant is removed. It is perfused ex vivo with phosphate-buffered saline supplemented with 2% paraformaldehyde and 2.5% glutaraldehyde for about 2 minutes, then for 24 hours fixed by immersion fixation in the same solution, and thereafter fixed in 4% buffered formalin. Pieces of the graft are embedded in paraffin, in such a way that both a transversal section and a longitudinal section is made of the grafted aorta and the recipient's own aorta.\nSections of 4 μm thickness are stained by hematoxylin-eosin, elastica-von-Gieson and periodic-acid-Schiff. Apart from conventional light microscopy, images are recorded by confocal laser scanning microscopy. From each section, four areas are scanned, and from each area the thickness of the intima and intima+media is measured at five locations. […]"}, "carotid artery": {"test_system": "carotid artery", "experiment": "Angioplasty, balloon catheter injury of the left common carotid artery", "type": "in vivo, RoRo rats", "conditions": "for inhibition of neointima formation: day -3 to day +14", "experimental": "Studies on angioplasty are done in the model of balloon catheter injury: Balloon catheterization is performed on day 0, essentially as described by Powell et al. (1989). Under Isofluorane anaesthesia, a Fogarty 2 F catheter is introduced into the left common carotid artery via the external carotid and inflated (distension≈10 μl H2O). The inflated balloon is withdrawn along the length of the common carotid three times, the latter two times whilst twisting gently to obtain a uniform de-endothelialization. The cathethcr is then removed, a ligature placed around the external carotid to prevent bleeding and the animals allowed to recover.\n2 groups of 12 RoRo rats (400 g. approximately 24 weeks old) are used for the study: one control group and one group receiving the compound of formula I. The rats are fully randomized during all handling, experimental procedures and analysis.\nThe compound to be tested is administered p.o. (gavage) starting 3 days before balloon injury (day −3) until the end of the study, 14 days after balloon injury (day +14). Rats are kept in individual cages and allowed food and water ad libidum.\nThe rats are then anaesthetized with Isofluorane, a perfusion catheter inserted through the left ventricle and secured in the aortic arch, and an aspiration cannula inserted into the right ventricle. […] The perfusion pressure is 150 mmHg at the tip of the cannula (≈100 mmHg in the carotid artery), as determined in a preliminary experiment by introducing a cannula attached to a pressure transducer into the external carotid). […]\nSections 1-2 μm thick are cut from the middle section of each carotid with a hard metal knife on a rotary microtome and stained for 2 min with Giemsa stain. About 5 sections from each carotid are thus prepared and the cross-sectional area of the media, neointima and the lumen morphometrically evaluated by means of an image analysis system (MCID, Toronto, Canada)."}, "hamster heart xenograft": {"test_system": "hamster heart xenograft", "experiment": "In vivo heart xenotransplantation (hamster-to-rat)", "from_the_text": "The hamster-into-rat xenograft combination is a so-called difficult concordant combination. […] This is visualized in histology by destruction of blood vessels, exsudation and extravasation of erythrocytes, and influx by polymorpho- nuclear granulocytes: often there are signs of hemorrhage and thrombosis. […] This is visualized in histology by influx of mononuclear cells, including lymphocytes, lymphoblastoid cells, and macrophages, and destruction of the myocyte parenchyma. The inhibition of cellular rejection requires more immuno-suppression than that of allografts. Congenitally athymic (mu/mu) rats lack a competent (thymus-dependent) cellular immune system and generally are unable to reject allografts.\nThe graft is monitored daily by palpation of the abdomen. Rejection is concluded in case of cessation of heart beat. Animals are weighed weekly. In the present series of experiments, the endpoint is set to 28 days. Animals are subjected to autopsy; apart from the graft, weight and histology is assessed for thymus, spleen, liver, seminal vesicles and testes. Blood is taken and processed to serum for the determination of cytolytic anti-hamster erythrocyte antibody and hemolytic complement activity."}, "[1]": {"experiment": "4-week toxicity study in rats", "type": "in vivo", "experimental": "(§1) Compounds of formula I are well tolerated at dosages required for use in accordance with the present invention. For example, the NTEL for Compound A in a 4-week toxicity study is 0.5 mg/kg/day in rats and 1.5 mg/kg/day in monkeys."}, "[2]": {"experiment": "4-week toxicity study in monkeys", "type": "in vivo", "experimental": "as §1"}, "[3]": {"conditions": "2.5 mg/kg/day per os, vs placebo group"}}, "data": [{"compound": "CO[C@H]1C[C@@H]2CC[C@@H](C)[C@@](O)(O2)C(=O)C(=O)N2CCCC[C@H]2C(=O)O[C@H]([C@H](C)C[C@@H]2CC[C@@H](OCCO)[C@H](OC)C2)CC(=O)[C@H](C)/C=C(\\C)[C@@H](O)[C@@H](OC)C(=O)[C@H](C)C[C@H](C)/C=C/C=C/C=C/1C", "note": "[Compound A, 40-O-(2-hydroxy)ethyl-rapamycin]", "values": [{"measurement": "MRI score of rejection", "setting": "kidney allograft; [3]", "result": "significantly lower"}, {"measurement": "histologic score for cellular rejection and vessel changes", "setting": "kidney allograft; [3]", "result": "significantly lower"}, {"measurement": "reduction in perfusion rate assessed by MRI", "setting": "kidney allograft; [3]", "result": "significantly lower"}, {"measurement": "rejection parameters (MRI score, relative perfusion rate of the grafted kidney, histologic score for cellular rejection and vessel changes)", "setting": "kidney allograft; dose of 0.5 to 2.5 mg/kg per os, from day 53-64 after transplantation for 69-72 days", "result": "reduction"}, {"measurement": "graft infiltration", "setting": "aorta allograft", "result": "significantly inhibit"}, {"measurement": "neointima formation", "setting": "aorta allograft", "result": "significantly inhibit"}, {"measurement": "inhibition of neointima formation", "setting": "carotid artery; 0.5 mg/kg p.o. daily", "result": 50, "unit": "%"}, {"measurement": "inhibition of neointima formation", "setting": "carotid artery; 2.5 mg/kg p.o. daily", "result": 75, "unit": "%"}, {"measurement": "intimal thickening", "setting": "carotid artery; p.o. day -3 to day +14, compared to the control animals", "result": "significantly less"}, {"measurement": "graft survival", "setting": "hamster heart xenograft; athymic recipients", "result": "prolonged graft survival"}, {"measurement": "graft survival", "setting": "hamster heart xenograft; euthymic recipients", "result": "prolonged graft survival"}, {"measurement": "NTEL", "setting": "[1]", "result": 0.5, "unit": "mg/kg/day"}, {"measurement": "NTEL", "setting": "[2]", "result": 1.5, "unit": "mg/kg/day"}]}]}
